Results published in PubChem BioAssay AID256 (DTP/NCI, 2004).
Several values for one entry are separate records, joined by “and”; a condition that tells them apart may be missing. Equal entries are not always repeated. Toxic doses and inconclusive results are not listed. Non-standard residues stand in square brackets, D forms with d. Residues, ends and D or L forms follow the SMILES beside them. ξ: configuration not given here. *: point of attachment. ξE = NC(CCC(=O)O)C(=O)O; Cbz = O=C(OCc1ccccc1)*; OBn = c1ccc(CO*)cc1

Tested on: CD2F1 mice, L1210 leukemia ip, survival T/C
Test: NCI In Vivo Anticancer Drug Screen. Data for tumor model L1210 Leukemia (intraperitoneal) in CD2F1 (CDF1) mice
Conditions: higher = longer survival
Summary of the method: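 Compound-dosed mice with transplantable tumor versus matched vehicle controls; endpoint ratio T/C reported.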

[1] = endpoint: mean survival time, dose: 100.0 mg/kg/injection, schedule: Q04DX002 (ip), vehicle: saline with Tween-80
[2] = endpoint: mean survival time, dose: 200.0 mg/kg/injection, schedule: Q04DX002 (ip), vehicle: saline with Tween-80
[3] = endpoint: mean survival time, dose: 100.0 mg/kg/injection, schedule: Q01DX001 (ip), vehicle: saline with Tween-80
[4] = endpoint: mean survival time, dose: 200.0 mg/kg/injection, schedule: Q01DX001 (ip), vehicle: saline with Tween-80
[5] = endpoint: mean survival time, dose: 400.0 mg/kg/injection, schedule: Q01DX001 (ip), vehicle: saline with Tween-80
[6] = endpoint: mean survival time, dose: 100.0 mg/kg/injection, schedule: Q01DX009 (ip), vehicle: saline with Tween-80
[7] = endpoint: mean survival time, dose: 100.0 mg/kg/injection, schedule: Q04DX003 (ip), vehicle: saline with Tween-80
[8] = endpoint: mean survival time, dose: 200.0 mg/kg/injection, schedule: Q04DX003 (ip), vehicle: saline with Tween-80

SMILES: CCCCCCC(C)Oc1ccc(Cl)cc1Cl (configuration not stated)
- T/C [1]: 90 % of control
- T/C [2]: 90 % of control
- T/C (endpoint: mean survival time, dose: 400.0 mg/kg/injection, schedule: Q04DX002 (ip), vehicle: saline with Tween-80): 101 % of control

SMILES: N#CC(/C=C/c1ccccc1)Nc1ccccc1C(N)=O (configuration not stated)
- T/C (endpoint: mean survival time, dose: 100.0 mg/kg/injection, schedule: Q04DX003 (ip), vehicle: saline sonified): 97 % of control
- T/C (endpoint: mean survival time, dose: 200.0 mg/kg/injection, schedule: Q04DX003 (ip), vehicle: saline sonified): 97 % of control
- T/C (endpoint: mean survival time, dose: 400.0 mg/kg/injection, schedule: Q04DX003 (ip), vehicle: saline sonified): 97 % of control

SMILES: CCCCCCCCCCCCCC(CCCCCCCCCC)CCCCCCCCCC
- T/C [3]: 98 % of control
- T/C [4]: 103 % of control
- T/C [5]: 104 % of control

SMILES: O=C(CNC(=O)Nc1cccc(C(F)(F)F)c1)N/N=C/c1cc(Br)ccc1O
- T/C (endpoint: mean survival time, dose: 50.0 mg/kg/injection, schedule: Q01DX009 (ip), vehicle: saline with Tween-80): 96 % of control
- T/C [6]: 88 % of control

SMILES: CN1COc2c(n(C)c(=O)[nH]c2=O)C1
- T/C (endpoint: median survival time, dose: 50.0 mg/kg/injection, schedule: Q01DX005 (ip), vehicle: saline): 98 % of control
- T/C (endpoint: median survival time, dose: 50.0 mg/kg/injection, schedule: Q01DX005 (ip), vehicle: suspension in saline): 101 % of control
- T/C (endpoint: median survival time, dose: 100.0 mg/kg/injection, schedule: Q01DX005 (ip), vehicle: saline): 98 % of control
- T/C (endpoint: median survival time, dose: 100.0 mg/kg/injection, schedule: Q01DX005 (ip), vehicle: suspension in saline): 103 % of control
- T/C (endpoint: median survival time, dose: 200.0 mg/kg/injection, schedule: Q01DX005 (ip), vehicle: saline): 101 % of control
- T/C (endpoint: median survival time, dose: 200.0 mg/kg/injection, schedule: Q01DX005 (ip), vehicle: suspension in saline): 102 % of control
- T/C (endpoint: median survival time, dose: 400.0 mg/kg/injection, schedule: Q01DX005 (ip), vehicle: saline): 109 % of control
- T/C (endpoint: median survival time, dose: 400.0 mg/kg/injection, schedule: Q01DX005 (ip), vehicle: suspension in saline): 119 % of control
- T/C (endpoint: median survival time, dose: 800.0 mg/kg/injection, schedule: Q01DX005 (ip), vehicle: saline): 108 % of control
- T/C (endpoint: median survival time, dose: 800.0 mg/kg/injection, schedule: Q01DX005 (ip), vehicle: suspension in saline): 116 % of control

SMILES: N#CCCN=C1C=CC(=C(c2ccc(NCCC#N)cc2)c2ccc(Cl)cc2Cl)C=C1
- T/C [1]: 117 % of control

SMILES: CN(C)c1ccc(Cc2ccc(N(C)C)nc2)cn1
- T/C (endpoint: mean survival time, dose: 100.0 mg/kg/injection, schedule: Q01DX009 (ip), vehicle: Klucel (hydroxypropylcellulose) (HPC)): 104 % of control
- T/C (endpoint: mean survival time, dose: 200.0 mg/kg/injection, schedule: Q01DX009 (ip), vehicle: Klucel (hydroxypropylcellulose) (HPC)): 98 % of control
- T/C (endpoint: mean survival time, dose: 400.0 mg/kg/injection, schedule: Q01DX009 (ip), vehicle: Klucel (hydroxypropylcellulose) (HPC)): 92 % of control

SMILES: CCCCCCCCCCCCCC(=O)N(C)C
- T/C (endpoint: mean survival time, dose: 50.0 mg/kg/injection, schedule: Q01DX009 (ip), vehicle: saline): 92 % of control
- T/C (endpoint: mean survival time, dose: 100.0 mg/kg/injection, schedule: Q01DX009 (ip), vehicle: saline): 98 % of control
- T/C [7]: 95 % of control
- T/C (endpoint: mean survival time, dose: 200.0 mg/kg/injection, schedule: Q01DX009 (ip), vehicle: saline): 95 % of control
- T/C [8]: 103 % of control

SMILES: NC(=O)Cc1c(Cl)n(-c2ccccc2)c2ccccc12
- T/C (endpoint: mean survival time, dose: 50.0 mg/kg/injection, schedule: Q04DX003 (ip), vehicle: Klucel (hydroxypropylcellulose) (HPC)): 95 % of control
- T/C (endpoint: mean survival time, dose: 100.0 mg/kg/injection, schedule: Q04DX003 (ip), vehicle: Klucel (hydroxypropylcellulose) (HPC)): 102 % of control
- T/C (endpoint: mean survival time, dose: 200.0 mg/kg/injection, schedule: Q04DX003 (ip), vehicle: Klucel (hydroxypropylcellulose) (HPC)): 95 % of control

SMILES: CC(=O)Nc1cccc(C[P+](c2ccccc2)(c2ccccc2)c2ccccc2)c1
- T/C [7]: 92 % of control
- T/C [8]: 92 % of control

SMILES: CCNCC(=O)O[C@]1(CC)C(=O)OCc2c1cc1n(c2=O)Cc2cc3ccccc3nc2-1
- T/C (endpoint: median survival time, dose: 7.5 mg/kg/injection, schedule: Q04DX002 (ip), vehicle: saline): 122 % of control and 110 % of control
- T/C (endpoint: median survival time, dose: 7.5 mg/kg/injection, schedule: Q04HX004 (iv), vehicle: dextrose): 164 % of control
- T/C (endpoint: median survival time, dose: 7.5 mg/kg/injection, schedule: Q04HX004 (iv), vehicle: other): 179 % of control
- T/C (endpoint: median survival time, dose: 15.0 mg/kg/injection, schedule: Q04DX002 (ip), vehicle: saline): 117 % of control
- T/C (endpoint: median survival time, dose: 15.0 mg/kg/injection, schedule: Q04HX004 (iv), vehicle: dextrose): 198 % of control
- T/C (endpoint: median survival time, dose: 15.0 mg/kg/injection, schedule: Q04HX004 (iv), vehicle: other): 195 % of control
- T/C (endpoint: median survival time, dose: 30.0 mg/kg/injection, schedule: Q04DX002 (ip), vehicle: saline): 170 % of control and 172 % of control
- T/C (endpoint: median survival time, dose: 30.0 mg/kg/injection, schedule: Q04HX004 (iv), vehicle: dextrose): 208 % of control
- T/C (endpoint: median survival time, dose: 30.0 mg/kg/injection, schedule: Q04HX004 (iv), vehicle: other): 223 % of control
- T/C (endpoint: median survival time, dose: 40.0 mg/kg/injection, schedule: Q04HX004 (iv), vehicle: other): 235 % of control

SMILES: O=C(O)CCCCCSc1nn(C2OC(CO)C(O)C2O)c(=O)[nH]c1=O (configuration not stated)
- T/C (endpoint: mean survival time, dose: 12.5 mg/kg/injection, schedule: Q01DX005 (ip), vehicle: distilled water + Tween-80): 112 % of control
- T/C (endpoint: mean survival time, dose: 25.0 mg/kg/injection, schedule: Q01DX005 (ip), vehicle: distilled water + Tween-80): 104 % of control
- T/C (endpoint: mean survival time, dose: 50.0 mg/kg/injection, schedule: Q01DX005 (ip), vehicle: distilled water + Tween-80): 104 % of control
- T/C (endpoint: mean survival time, dose: 100.0 mg/kg/injection, schedule: Q01DX005 (ip), vehicle: distilled water + Tween-80): 104 % of control
- T/C (endpoint: mean survival time, dose: 200.0 mg/kg/injection, schedule: Q01DX005 (ip), vehicle: distilled water + Tween-80): 104 % of control

SMILES: O=C1c2ccccc2C(=O)N1CC(O)COc1ccccc1[N+](=O)[O-] (configuration not stated)
- T/C [1]: 88 % of control
- T/C [2]: 100 % of control

SMILES: CC1(C)OC2C(C#N)OC(n3ccc(=O)[nH]c3=O)C2O1 (configuration not stated)
- T/C (endpoint: median survival time, dose: 21.88 mg/kg/injection, schedule: Q01DX005 (ip), vehicle: Klucel (hydroxypropylcellulose) (HPC)): 101 % of control
- T/C (endpoint: median survival time, dose: 43.75 mg/kg/injection, schedule: Q01DX005 (ip), vehicle: Klucel (hydroxypropylcellulose) (HPC)): 102 % of control
- T/C (endpoint: median survival time, dose: 87.5 mg/kg/injection, schedule: Q01DX005 (ip), vehicle: Klucel (hydroxypropylcellulose) (HPC)): 98 % of control
- T/C (endpoint: median survival time, dose: 175.0 mg/kg/injection, schedule: Q01DX005 (ip), vehicle: Klucel (hydroxypropylcellulose) (HPC)): 102 % of control

SMILES: N#CCCN(CC(O)c1cc2ccccc2c2ccccc12)C1CCCCC1 (configuration not stated)
- T/C [3]: 91 % of control
- T/C [6]: 106 % of control
- T/C [4]: 90 % of control
- T/C (endpoint: mean survival time, dose: 200.0 mg/kg/injection, schedule: Q01DX009 (ip), vehicle: saline with Tween-80): 97 % of control
- T/C [5]: 92 % of control
- T/C (endpoint: mean survival time, dose: 400.0 mg/kg/injection, schedule: Q01DX009 (ip), vehicle: saline with Tween-80): 97 % of control

SMILES: CCC(C)(OC(C)=O)C(=O)OC1C(=O)OC2CC3C(C)=CC(O)C(O)C3(C)C3C4(O)OCC23C1C(C)C4O (configuration not stated)
- T/C (endpoint: mean survival time, dose: 0.25 mg/kg/injection, schedule: Q01DX009 (ip), vehicle: saline + alcohol): 98 % of control
- T/C (endpoint: mean survival time, dose: 0.5 mg/kg/injection, schedule: Q01DX009 (ip), vehicle: saline + alcohol): 102 % of control
- T/C (endpoint: mean survival time, dose: 1.0 mg/kg/injection, schedule: Q01DX009 (ip), vehicle: saline + alcohol): 106 % of control
- T/C (endpoint: mean survival time, dose: 2.0 mg/kg/injection, schedule: Q01DX009 (ip), vehicle: saline + alcohol): 98 % of control
- T/C (endpoint: mean survival time, dose: 4.0 mg/kg/injection, schedule: Q01DX009 (ip), vehicle: saline + alcohol): 96 % of control

SMILES: O=C(CNC(=O)OCc1ccccc1)NCC(=O)NC(CCC(=O)OCc1ccccc1)C(=O)OCc1ccccc1 (stereo not drawn) (Cbz-Gly-Gly-[ξE](OBn)-OBn)
- T/C (endpoint: mean survival time, dose: 100.0 mg/kg/injection, schedule: Q04DX003 (ip), vehicle: other): 95 % of control
- T/C (endpoint: mean survival time, dose: 200.0 mg/kg/injection, schedule: Q04DX003 (ip), vehicle: other): 91 % of control
- T/C (endpoint: mean survival time, dose: 400.0 mg/kg/injection, schedule: Q04DX003 (ip), vehicle: other): 95 % of control

SMILES: Oc1ccccc1NC(=S)Nc1ccccc1
- T/C (endpoint: mean survival time, dose: 100.0 mg/kg/injection, schedule: Q01DX001 (ip), vehicle: saline): 102 % of control
- T/C (endpoint: mean survival time, dose: 200.0 mg/kg/injection, schedule: Q01DX001 (ip), vehicle: saline): 98 % of control
- T/C (endpoint: mean survival time, dose: 400.0 mg/kg/injection, schedule: Q01DX001 (ip), vehicle: saline): 100 % of control

SMILES: Sc1ccc(Cl)cc1
- T/C [3]: 98 % of control
- T/C [4]: 98 % of control
- T/C [5]: 102 % of control

SMILES: O=c1cc(Cc2ccccc2)[nH]c(=S)[nH]1
- T/C (endpoint: mean survival time, dose: 100.0 mg/kg/injection, schedule: Q01DX001 (ip), vehicle: Klucel (hydroxypropylcellulose) (HPC)): 94 % of control
- T/C (endpoint: mean survival time, dose: 200.0 mg/kg/injection, schedule: Q01DX001 (ip), vehicle: Klucel (hydroxypropylcellulose) (HPC)): 95 % of control
- T/C (endpoint: mean survival time, dose: 400.0 mg/kg/injection, schedule: Q01DX001 (ip), vehicle: Klucel (hydroxypropylcellulose) (HPC)): 89 % of control

SMILES: Cc1ccc(NC(=O)Oc2ccc(F)cc2Cl)cc1NC(=O)Oc1ccc(F)cc1Cl
- T/C [3]: 103 % of control
- T/C [4]: 101 % of control
- T/C [5]: 95 % of control
